Values after ≈ are worked out from the molar mass of the structure shown.
Tests used:
M. bovis = type: in vivo, cattle; conditions: nasal cavity swab
P. multocida = assay: Bacteria separation test from nasal cavity swab; type: in vivo, cattle
E. coli K-12 R-5 = assay: Minimum inhibition concentration (MIC), agar double dilution method; type: cell-based, Escherichia coli; conditions: Escherichia coli, K12R5, Mueller hinton agar, read-out: MIC
Experimental: (§1) Test 1; Minimum Inhibition Concentration (MIC)
(§2) MIC was measured, based on the standard method of Japan Society of Chemotherapy, on a BHI agar medium (Brain heart-infusion agar, made by Difco Laboratories Inc.(USA)) with respect to Pasteurella and on a Mueller hinton agar medium (Mueller hinton agar, made by Difco, Laboratories Inc.(USA)) with respect to the other test bacteria in both cases according to the double dilution method.

[1] = test system: P. haemolytica 63-39 intraperitoneally infected mice; assay: Antiinfective test on infected mice
[2] = test system: Past. multocida BSPO302 No. 6; assay: Minimum inhibition concentration (MIC), agar double dilution method; type: cell-based, Pasteurella multocida; conditions: Pasteurella multocida, BSPO302NO.6; Past. multocida BSPO302 No. 6, strain from a pig; BHI agar; read-out: MIC
Experimental: as §1, §2

[3] = test system: Past. multocida BOPO305 M-17; assay: as above; type: cell-based, Pasteurella multocida; conditions: Pasteurella multocida, BOPO305M17; Past. multocida BOPO305 M-17, strain from a sheep; BHI agar; read-out: MIC
Experimental: as §1, §2

P. haemolytica = assay: Bacteria separation test from nasal cavity swab; type: in vivo, cattle
ICR mice = assay: Toxicity test, intravenous or subcutaneous injection; type: in vivo; conditions: intravenous injection
M. bovirhinis = assay: Bacteria separation test from nasal cavity swab; type: in vivo, cattle
[4] = test system: Past haemolytica BBPO102 N811; assay: Minimum inhibition concentration (MIC), agar double dilution method; type: cell-based, Pasteurella haemolytica; conditions: Mannheimia haemolytica, BBPO102N811
Experimental: as §1, §2

[5] = test system: Past haemolytica BAPO103 S801; assay: as above; type: cell-based, Pasteurella haemolytica; conditions: Mannheimia haemolytica, BAPO103S801; Past haemolytica BAPO103 S801, strain from poultry; BHI agar; read-out: MIC
Experimental: as §1, §2

Ureaplasma = assay: Bacteria separation test from nasal cavity swab; type: in vivo, cattle
[6] = test system: S. aureus Smith (virulent strain); assay: microbe, parasite or virus in culture; type: cell-based, Staphylococcus aureus; conditions: Staphylococcus aureus
Experimental: as §1, §2

[7] = test system: Shigella dysenteriae JS11910; assay: Minimum inhibition concentration (MIC), agar double dilution method; type: cell-based; conditions: Shigella dysenteriae, JS11910
Experimental: as §1, §2

[8] = test system: Micrococcus luteus PCI1001; assay: as above; type: cell-based; conditions: Mueller hinton agar, read-out: MIC
Experimental: as §1, §2

Proteus vulgaris OX19 = assay: as above; type: cell-based; conditions: Mueller hinton agar, read-out: MIC
Experimental: as §1, §2

Serratia marcescens = assay: as above; type: cell-based; conditions: Mueller hinton agar, read-out: MIC
Experimental: as §1, §2

[9] = test system: Salmonella enteritidis 1891; assay: as above; type: cell-based; conditions: Salmonella enterica, Mueller hinton agar, read-out: MIC
Experimental: as §1, §2

[10] = test system: Enterobacter aerogenes ATCC13048; assay: as above; type: cell-based; conditions: Klebsiella aerogenes, Mueller hinton agar, read-out: MIC
Experimental: as §1, §2

[11] = test system: Pasteurella haemolytica BBPO101 N791; assay: as above; type: cell-based; conditions: Mannheimia haemolytica, BBPO101N791
Experimental: as §1, §2

Escherichia coli NIHJ = assay: as above; type: cell-based; conditions: Mueller hinton agar, read-out: MIC
Experimental: as §1, §2

[12] = test system: Staphylococcus aureus 193; assay: as above; type: cell-based; conditions: Mueller hinton agar, read-out: MIC
Experimental: as §1, §2

[13] = test system: Klebsiella pneumoniae PCI602; assay: as above; type: cell-based; conditions: Mueller hinton agar, read-out: MIC
Experimental: as §1, §2

[14] = test system: Bacillus subtilis NRRL B-558; assay: as above; type: cell-based; conditions: Bacillus subtilis, NRRLB558
Experimental: as §1, §2

[15] = test system: bovine bacterial pneumonia (Mycoplasma, Ureaplasma and Pasteurella); assay: Clinical test against bovine bacterial pneumonia; type: in vivo, cattle; design: Average clinical score: scale not given here
Text: Test 5: Clinical Test Against Bovine Bacterial Pneumonia
In this test, each drug was subcutaneously administered to cattle suffering from bacterial pneumonia (infectious diseases with Mycoplasma, Ureaplasma and Pasteurella), respectively, and the clinical effect of P-MT was compared with those of tilmicosin and C-9.
Tests are made on 17 case of one to two-month-old Holstein cattle (weight 56 to 101 kg) suffering from bacterial pneumonia caused by single or mixed infection of Pasteurella, Mycoplasma, Ureaplasma and Haemophilus (6 animals for each of P-MT and C-9 and 5 animals for tilmicosin). The drug was subcutaneously administered to the animals once a day in an amount of 10 mg/kg.
Three calves showing a similar degree of symptoms at the start of the test were arranged in one group. Each subject of the same group was respectively tested with one of the above three compounds. Ailing calves were successively grouped when being available.
Clinical findings, based on the daily observation from the time of the administration through the 5th day of the trial, were scored on each item according to the criteria in the table below. The clinical efficacy of the compounds was judged on the 5th day.
As to judgment based on the clinical symptoms, cases which could be judged among each group were classified into remarkably effective (85 to 100), effective (70 to under 85), a little effective (50 to under 70) and infective (under 50) according to the following improvement rate by clinical scores, and after summing up, the following effective rate was calculated, the difference in the effective rate among the groups was determined using a statistical method, and thus effectivity was judged. [formula]

[16] = before administration (baseline)

SMILES: CC[C@H]1OC(=O)C[C@@H](O)[C@H](C)[C@@H](O[C@@H]2O[C@H](C)C(O)C(N(C)C)C2O)[C@@H](CCN2CC(C)CC(C)C2)C[C@@H](C)C(=O)/C=C/C(C)=C/[C@@H]1CO[C@@H]1OC(C)C(O)[C@@H](OC)C1OC (stereo partly drawn) [Tilmicosin, tilmicosin]
- Separation rate (%) at completion (number of animal) (M. bovis; at completion): 40 (2/5) % (number of animal)
- Separation rate (%) before administration (number of animal) (M. bovis; [16]): 40 (2/5) % (number of animal)
- Separation rate (%) at completion (number of animal) (P. multocida; at completion): 80 (4/5) % (number of animal)
- Separation rate (%) before administration (number of animal) (P. multocida; [16]): 100 (5/5) % (number of animal)
- MIC (E. coli K-12 R-5): > 100 µg/mL
- ED50 ([1]; Mannheimia haemolytica, in Mus musculus, sc, 168 h, read-out: ED50 (95% confidence limit)): 26.2 mg/kg
- Surviving number after 7 days/test number ([1]; dose 1 mg/kg subcutaneous one hour after infection): 0/10
- Surviving number after 7 days/test number ([1]; dose 5 mg/kg subcutaneous one hour after infection): 0/10
- Surviving number after 7 days/test number ([1]; dose 10 mg/kg subcutaneous one hour after infection): 3/10
- Surviving number after 7 days/test number ([1]; dose 20 mg/kg subcutaneous one hour after infection): 4/10
- Surviving number after 7 days/test number ([1]; dose 30 mg/kg subcutaneous one hour after infection): 5/10
- ED90 ([1]; probit method from surviving numbers after 7 days, subcutaneous): 102.1 mg/kg
- MIC [2]: 6.25 µg/mL (≈ 7.19 µM)
- MIC [3]: 6.25 µg/mL (≈ 7.19 µM)
- Separation rate (%) at completion (number of animal) (P. haemolytica; at completion): 20 (1/5) % (number of animal)
- Separation rate (%) before administration (number of animal) (P. haemolytica; [16]): 20 (1/5) % (number of animal)
- Dissection finding (ICR mice; 0.5 mg/mouse): immediate death
- Dissection finding (ICR mice; 1.0 mg/mouse): immediate death
- Dissection finding (ICR mice; 2.0 mg/mouse): immediate death
- Separation rate (%) at completion (number of animal) (M. bovirhinis; at completion): 60 (3/5) % (number of animal)
- Separation rate (%) before administration (number of animal) (M. bovirhinis; [16]): 60 (3/5) % (number of animal)
- MIC [4]: 1.56 µg/mL (≈ 1.79 µM)
- MIC [5]: 50 µg/mL (≈ 57.5 µM)
- Separation rate (%) at completion (number of animal) (Ureaplasma; at completion): 60 (3/5) % (number of animal)
- Separation rate (%) before administration (number of animal) (Ureaplasma; [16]): 100 (5/5) % (number of animal)
- MIC [6]: 1.56 µg/mL (≈ 1.79 µM)
- MIC [7]: 100 µg/mL (≈ 115 µM)
- MIC [8]: 0.2 µg/mL (≈ 0.23 µM)
- MIC (Proteus vulgaris OX19): 100 µg/mL (≈ 115 µM)
- MIC (Serratia marcescens): > 100 µg/mL
- MIC [9]: 6.25 µg/mL (≈ 7.19 µM)
- MIC [10]: 100 µg/mL (≈ 115 µM)
- MIC [11]: 1.56 µg/mL (≈ 1.79 µM)
- MIC (Escherichia coli NIHJ): 25 µg/mL (≈ 28.8 µM)
- MIC [12]: 0.39 µg/mL (≈ 0.449 µM)
- MIC [13]: 25 µg/mL (≈ 28.8 µM)
- MIC [14]: 1.56 µg/mL (≈ 1.79 µM)
- Average clinical score ([15]; 1 day after completion of administration, cattle, 10 mg/kg subcutaneous): 3.5
- Average clinical score ([15]; 2 days after completion of administration): 2.8
- Average clinical score ([15]; 3 days after completion of administration): 2.2
- Average clinical score ([15]; 4 days after completion of administration): 2.7
- Effective rate (%) in clinical effect ([15]; (remarkably effective + effective case number)/test case number × 100): 40%
- Average symptomatic improvement rate (%) ([15]; (score before − score after administration)/score before × 100): 65.6%
- Average clinical score ([15]; at administration (baseline), cattle, 10 mg/kg subcutaneous): 6.5
- A little effective (%) (case number) ([15]; improvement rate 50 to under 70): 20 (1) % (case number)
- Effective (%) (case number) ([15]; improvement rate 70 to under 85): 0 (0) % (case number)
- Remarkably effective (%) (case number) ([15]; improvement rate 85 to 100): 40 (2) % (case number)
- Ineffective (%) (case number) ([15]; improvement rate under 50): 40 (2) % (case number)

— US6514946B1, “Macrolide antibiotics and treatment and prophylaxis of pasteurellosis using the same” (Zaidan Hojin Biseibutsu Kagaku Kenkyu Kai, priority 1999, dated 2003)
